pEC50: −log10 of the molar value.
How the values were obtained:
[1] = NOVARTIS: Cytotoxicity against human hepatocellular carcinoma cell line (Huh7); type: toxicity, cell-based, Huh-7; settings: Huh7 cells (hepatocellular carcinoma cell line)
Plasmodium falciparum [2] = experiment: NOVARTIS: Inhibition of Plasmodium falciparum W2 (drug-resistant) proliferation in erythrocyte-based infection assay; type: functional, organism-based; settings: Plasmodium falciparum, W2; read-out: EC50
Plasmodium falciparum [3] = experiment: NOVARTIS: Inhibition of Plasmodium falciparum 3D7 (drug-susceptible) proliferation in erythrocyte-based infection assay; type: functional, organism-based; settings: Plasmodium falciparum, 3D7

Row | SMILES | CC50 [1] | pEC50 (Plasmodium falciparum [2]) | pEC50 (Plasmodium falciparum [3])
1 | CCOC(=O)C1=C(CC)NC2=C(C(=O)CC(C)(C)C2)C1c1ccc(Cl)cc1Cl (stereo not given) | > 100 µM | 7.34 | 6.68
2 | COc1ccc(-c2cnc3ccc(NCc4cccc(Cl)c4)nn23)cn1 | 68.9 µM | 5.95 | 6.09
3 | CCNc1nc(OC)nc(Oc2ccc(=O)n(-c3ccccc3)n2)n1 | > 100 µM | 6.23 | 6.26
4 | O=C(Nc1ccc(C(F)(F)F)cc1)c1ccc(NCCCN2CCCCCC2)c([N+](=O)[O-])c1 | 21.2 µM | 6.48 | 6.92
5 | O=C(Nc1ccc(NC2=NCCN2)cc1)c1ccc(C(=O)Nc2ccc(NC3=NCCN3)cc2)cc1 | > 10 µM | 7.59 | 6.78
6 | COc1ccccc1C(=O)NN=C(C)c1cccnc1 | > 10 µM | < 6.22 | < 5.90
7 | Cc1c(NC(=S)N2CCOCC2)c(=O)n(-c2ccccc2)n1C | > 10 µM | < 5.90 | < 6.04
8 | COc1ccc(C(NC(=O)c2cccc(OC)c2)c2cc(Cl)c3cccnc3c2O)cc1 (stereo not given) | > 100 µM | 5.86 | 6.01
9 | O=C(CSc1nc(NCc2ccccc2)c2ccccc2n1)NCc1ccco1 | > 10 µM | 6.42 | 6.59
10 | Cc1noc(C)c1C(=O)N1CCC(O)(c2ccccn2)CC1 | > 10 µM | < 5.85 | < 6.25
11 | Cc1ccc(Cn2c(N3CCC(C(=O)NCc4ccccn4)CC3)nc3ccccc32)cc1 | > 100 µM | 6.73 | 6.32
12 | CCCN1CCC(c2nc(N3CCOCC3)ncc2-c2cc(C)no2)CC1 | > 10 µM | < 5.90 | < 6.36
13 | CCc1ccc2c(c1)c1nnc(SCC(=O)NCCOC)nc1n2C | > 10 µM | < 6.08 | < 5.90
14 | COc1ccc(CNC(=O)c2ccc3c(c2)N=C(/C=C/c2ccccc2)N(CCN2CCOCC2)C3)cc1 | > 10 µM | < 6.02 | 6.10
15 | CCOC(=O)C1=C(C)NC2=C(C(=O)CC(C)(C)C2)C1c1ccc(Cl)cc1 (stereo not given) | > 100 µM | 7.17 | 6.94
16 | C=CC1CN2CCC1CC2C(O)c1ccnc2ccc(OC)cc12 (stereo not given) | 82.5 µM | 7.27 | 7.93
17 | COc1cc(C(=O)N2CCN(Cc3cccc(Br)c3)CC2)cc(OC)c1OC | > 100 µM | 5.25 | < 4.90
18 | COCCN1Cc2cccc(C(=O)Nc3ccc4c(c3)OCCO4)c2C1=O | > 10 µM | 5.86 | < 5.84
19 | CCCC(=O)N1CCN(c2nc(Cc3ccccc3)c3c(c2C#N)CC(C)(C)OC3)CC1 | > 90.9 µM | 6.44 | 6.49
20 | COC1=CC(=O)c2c(ccc3c(OC)c(O)ccc23)C1=O | > 10 µM | 6.52 | 6.70
21 | CCOc1cccc2c1N(C(=O)c1cccc([N+](=O)[O-])c1)C(C)(C)C(=S)C2=C1SC(C(=O)OC)=C(C(=O)OC)S1 | > 10 µM | 6.35 | < 5.90
22 | O=C(Nc1ccc(CC2=NCCCN2)cc1)c1ccc(C(=O)Nc2ccc(CC3=NCCCN3)cc2)cc1 | > 10 µM | 6.89 | 6.90
23 | CN(C)c1ccc2c(c1)Sc1cc(N(C)C)ccc1N2C(=O)c1ccccc1 | > 100 µM | 6.63 | 6.66
24 | COc1ccc(C(C)=O)cc1N1C(=O)C2C(C1=O)C1(c3ccccc3)C(=O)C2(c2ccccc2)C(c2ccc(C)cc2)=C1c1ccc(C)cc1 (stereo not given) | > 100 µM | 5.75 | 5.61
25 | CC(C)Sc1nc2c(c(=O)n1Cc1ccco1)C1(CCCCC1)Cc1ccccc1-2 | > 100 µM | < 4.90 | 5.02

Row | SMILES | CC50 [1] | pEC50 (Plasmodium falciparum [2]) | pEC50 (Plasmodium falciparum [3])
26 | COc1ccc(CN2CCN(C(=O)c3sc4ncn(Cc5ccccc5F)c(=O)c4c3C)CC2)c(OC)c1OC | > 10 µM | < 5.90 | 6.00
27 | CN(C)CCNc1ncnc2c1[nH]c1ccc(Br)cc12 | 21.1 µM | 6.32 | 7.00
28 | COc1ccc(C2CC3=NC(C)=C(C(=O)OC(C)C)C(c4ccccc4OC)C3=C(O)C2)cc1OC (stereo not given) | > 100 µM | 7.40 | 7.04
29 | Cc1ccc(-c2nn(CC(=O)Nc3ccc(OC(F)(F)F)cc3)c(=O)c3ccccc23)cc1S(=O)(=O)N1CCCCC1 | > 10 µM | 5.72 | < 5.90
30 | CCC(CO)NCC(O)Cn1c2ccc(Br)cc2c2cc(Br)ccc21 (stereo not given) | 11.2 µM | 6.90 | 6.28
31 | CC(C)CCNCC(O)Cn1c2ccc(Br)cc2c2cc(Br)ccc21 (stereo not given) | 19 µM | 7.05 | 6.57
32 | Oc1cccc(-c2cncc(-c3cccnc3)n2)c1 | > 10 µM | 5.89 | 5.89
33 | O=C(/C=C/c1ccc(Br)cc1)NC(=O)c1ccccc1O | > 10 µM | 5.96 | < 5.90
34 | Cc1ccccc1Nc1nc(NCCO)c2ccccc2n1 | 23.7 µM | 6.16 | 5.77
35 | COc1cccc(Cn2c3cc(C)sc3c3cnn(C)c(=O)c32)c1 | 68.6 µM | 6.23 | 6.30
36 | CN(C)CCNc1cc(-c2cccc(C(F)(F)F)c2)nc(-c2ccncc2)n1 | > 10 µM | 5.77 | < 5.90
37 | CSc1nc2nc(C)c(Cc3cccc(F)c3)c(C)n2n1 | > 100 µM | 6.82 | 6.53
38 | N#C/C(=C\C=C\c1ccc([N+](=O)[O-])o1)c1nc2ccccc2[nH]1 | > 10 µM | 6.02 | 5.98
39 | COC(CNc1cc(-c2ccccn2)nc(-c2ccccn2)n1)OC | > 10 µM | 6.20 | 6.47
40 | CC[n+]1c(/C=C2\C=C(C)CC(C)C2)sc2ccccc21 (stereo not given) | > 10 µM | < 6.04 | < 5.94
41 | CCOC(=O)C1=C(C)NC2=C(C(=O)CC(c3ccc(OC)c(OC)c3)C2)C1c1ccc([N+](=O)[O-])cc1 (stereo not given) | > 100 µM | 7.19 | 6.74
42 | Cc1cc(-c2cncnc2C2CCN(C(=O)c3cc(C(C)C)n[nH]3)CC2)on1 | > 10 µM | < 6.07 | < 5.90
43 | CCN(CC)CCCC(C)NC(=O)CSc1nc2ccccc2c(=O)n1-c1cccc(Cl)c1 (stereo not given) | > 10 µM | < 5.97 | < 5.90
44 | OCCN1CCN(c2cc(-c3cccnc3)nc(-c3ccncc3)n2)CC1 | > 10 µM | 6.20 | 6.02
45 | CCC1=NN2C(=N)/C(=C/c3cn(CCOc4ccccc4C(C)CC)c4ccccc34)C(=O)N=C2S1 (stereo not given) | > 10 µM | < 6.06 | < 5.90
46 | OC(Cn1cnc(-c2ccccc2)c1-c1ccccc1)Cn1c2ccc(Br)cc2c2cc(Br)ccc21 (stereo not given) | > 100 µM | 7.27 | 6.02
47 | O=c1c2sccc2nc(SCc2cc(=O)n3ccccc3n2)n1Cc1ccccc1 | > 10 µM | 5.89 | < 5.90
48 | CCCCN1C(=O)NC(c2ccc(NC(=O)c3cccs3)cc2)C(C(=O)OC(C)C)=C1C (stereo not given) | > 100 µM | 5.50 | 5.06
49 | O=C(NC(=C(Cl)Cl)[P+](c1ccccc1)(c1ccccc1)c1ccccc1)c1ccc(F)cc1 | 1.74 µM | 6.77 | 6.02
50 | CCCNC(=O)N1CCC2(CC1)CC(=O)c1ccccc1O2 | > 10 µM | 5.75 | < 5.90
